# Source: patent publication US11596615B2, “Compositions and methods for treatment of insulin resistance” (Temple University—Of The Commonwealth System Of Higher …, priority 2016, dated 2023)
# Entries after “also recorded” stand apart in the source; their conditions may differ. Structures can show the parent of a compound that is named as a salt.
# What was measured:
# [1] = Liver microsome stability, human; assay type: in vitro ADME, Human (pooled male and female); details: both sexes; human liver microsomes, 1 μM compound, 0.5 mg/ml microsomal protein, 37° C., 2 mM NADPH
# Procedure: The stability of the title compound in the presence of liver microsomes was tested at 1 μM compound and 0.5 mg/ml rat or human microsomal protein, at 37° C. with 2 mM NADPH (standard in vitro screening concentrations). […] The “t1/2” values are the maximum time employed for the respective assays.
# [2] = Solution stability in PBS, simulated gastric fluid and simulated intestinal fluid; assay type: physicochemical; details: 37° C.
# Procedure: The stability of the title compound was tested in the following media, in the following concentrations: (i) 1 μM in mouse (male C57BL/6) plasma, (ii) 1 μM in PBS (with Ca and Mg) (control treatment); (iii) 5 μM in stimulated gastric fluid (SGF; 0.2% NaCl; 84 mM HCl; 0.32% pepsin; pH 1.2); (iv) 5 μM in stimulated intestinal fluid (SIF; 50 mM KP, pH 6.8; 10 mg/ml pancreatin); and (v) 5 μM in PBS (+Ca and Mg) (control treatment). The results are as follows: (i) 1 μM in mouse plasma, t1/2>6 hr at 37° C.; (ii) 1 μM in PBS, t1/2>6 hr at 37° C.; (iii) 5 μM in SGF, t1/2>3 hrs at 37° C.; (iv) 5 μM in SIF, t1/2>3 hrs at 37° C.; and (v) 5 μM in PBS, t1/2>3 hr at 37° C. The “t1/2” values are the maximum time employed for the respective assays.
# [3] = Adduct formation with 4-HNE by mass spectroscopy; details: equimolar 10 μM APL and 4-HNE, 1 hr incubation at 37° C.; FIG. 6A, 6B; dihydrochloride
# Procedure: The experimental design was to incubate equimolar amounts (10 μM) of APL (dihydrochloride) with 4-HNE and measure adduct formation by mass spectroscopy before and after 1 hr incubation at 37° C.
# [4] = tested on: mice fed high fat diet (HFD); experiment: Blood glucose after glucose administration in overnourished mice (Example 10); assay type: in vivo, C57BL/6J mice; details: 10 μg/mL in drinking water, FIG. 7
# Source text: Twenty-four C57BL/6J mice 8-weeks old were fed with either regular CHOW diet or high fat diet (HFD, 60% of fat content). Eight animals received CHOW diet for one week, 8 animals had been fed already with HFD for two weeks and were continuously fed with the same diet for one more week (for a total of 3 weeks feeding) and 8 animals started HFD at the time of the animal selection (2 weeks feeding). Each group was divided in half, 4 animals received regular water and the other 4 received the (S)-2-amino-6-((3-aminopropyl)amino)hexanoic acid dihydrochloride (10 μg/mL) dissolved in the water. Animals were fasted for 5 hours, weighed, and blood glucose measured by tail clipping. In addition, glucose (1 mg/g of body weight) was administered intraperitoneally. Additional glucose levels were measured at 20, 40 and 80 minutes after glucose administration. Heavy glucose was also administered intraperitoneally to further measure glucose uptake from tissues. Glucose level was taken again at 140 minutes. Animals were euthanized under anesthesia (isoflurane), and blood, liver, fat and muscle were collected.
# [5] = Body weight of diet-induced (HFD) obese mice over two weeks; assay type: in vivo; details: 10 mg/kg/day
# Procedure: The body weights of diet-induced (HFD) mice with and without (S)-2-amino-6-((3-aminopropyl)amino)hexanoic acid dihydrochloride (10 mg/kg/day) were measured over 14 days.
# In contrast, poglitazone is known to cause water retention and weight gain.
# 3T3-L1 adipocytes = experiment: Restoring glucose uptake in insulin-stimulated 3T3-L1 cells exposed to 4-HNE and H2O2 (FIG. 13); assay type: cell-based, mouse; details: 10 μM pretreatment 12 hours, then 4HNE and H2O2 4 hours
# Procedure: Insulin-stimulated 3T3-L1 adipocytes were pretreated with the drug (S)-2-amino-6-((3-aminopropyl)amino)hexanoic acid dihydrochloride (10 μM) for 12 hours followed by exposure to 4HNE and H2O2 for an additional 4 hours. The amounts of glucose taken up by the 3T3-L1 adipocytes were measured by the MRM methods described above. The results in FIG. 13 show the effect of the drug in restoring glucose uptake in insulin-stimulated 3T3-L1 cells exposed to 4-HNE and H2O2: Control cells, no insulin (C− No Ins); control cells, with insulin (C+ Ins); 4HNE+H2O2-treated cells (4HNE/H2O2) and cells treated with drug+4HNE+H2O2 (“APL”).
# Insulin-stimulated 3T3-L1 adipocytes were pretreated with the drug (S)-2-amino-5-((6-aminohexyl)amino)pentanoic acid dihydrochloride (10 μM) for 12 hours followed by exposure to 4HNE and H2O2 for an additional 4 hours. The amounts of glucose taken up by the 3T3-L1 adipocytes were measured by the MRM methods described above. FIG. 13 includes the results: cells treated with (S)-2-amino-5-((6-aminohexyl)amino)pentanoic acid trihydrochloride (MC-180351).
# Insulin-stimulated 3T3-L1 adipocytes were pretreated with the drug (S)-2-amino-5-(([…])amino)pentanoic acid dihydrochloride (10 μM) for 12 hours followed by exposure to 4HNE and H2O2 for an additional 4 hours. The amounts of glucose taken up by the 3T3-L1 adipocytes were measured by the MRM methods described above. FIG. 13 includes the results: cells treated with (S)-2-amino-5-((5-aminopentyl)amino)pentanoic acid trihydrochloride (MC-180352).
compound,measurement,setting,value
"NCCCNCCCC[C@H](N)C(=O)O [APL, (S)-2-amino-6-((3-aminopropyl)amino)hexanoic acid dihydrochloride]",half-life at 1 μM,[1],> 1 h
same,microsomal CLint at 1 μM,[1],< 23 µL/min/mg
same,half-life at 1 μM,[2]; 1 μM in PBS (with Ca and Mg),> 6 h
same,half-life at 5 μM,[2]; 5 μM in PBS (+Ca and Mg),> 3 h
same,half-life at 5 μM,"[2]; simulated gastric fluid (SGF) with pepsin, 5 μM in SGF (pH 1.2, pepsin)",> 3 h
same,half-life at 5 μM,"[2]; simulated intestinal fluid (SIF) with pancreatin, 5 μM in SIF (pH 6.8, pancreatin)",> 3 h
same,adduct formation with 4-HNE,[3],forms an adduct with 4-HNE after 1 hr of incubation; also recorded: forms an adduct with 4-NHE
same,glucose uptake impairment induced by overnutrition (blood glucose levels),[4],effective in counteracting glucose uptake impairment induced by overnutrition
same,body weight,"[5]; HFD obese mice, two weeks, FIG. 9",no effect on body weight
same,toxicity (from body weight),"[5]; mouse, in vivo",lack of significant toxicity
same,GLUT4 carbonylations,3T3-L1 adipocytes,reduce GLUT4 carbonylations
same,glucose uptake impairment induced by 4-HNE and H2O2,3T3-L1 adipocytes; FIG. 13,prevent glucose uptake impairment induced by 4-HNE and H2O2
